Data published in patent US11667649B2, “Heteroaromatic macrocyclic ether chemotherapeutic agents” (Nuvalent, Inc., priority 2020, dated 2023).

Tested on: TPM3-NTRK1-wt IC50 / primary target (e.g. CD74-ROS1-wt) IC50, Ba/F3 cells
Assay: Cell assay TRKA selectivity (TRKA potency divided by primary target potency)
Assay type: cell-based
Settings: for TPM3-NTRK1-wt/CD74-ROS1-G2032R: TRKA selectivity ratio: TPM3-NTRK1-wt IC50 / CD74-ROS1-G2032R IC50, Ba/F3 cells; for TPM3-NTRK1-wt/CD74-ROS1-wt: TRKA selectivity ratio: TPM3-NTRK1-wt IC50 / CD74-ROS1-wt IC50, Ba/F3 cells; for TPM3-NTRK1-wt/EML4-ALK-L1196M-G1202R: TRKA selectivity ratio: TPM3-NTRK1-wt IC50 / EML4-ALK-L1196M-G1202R IC50, Ba/F3 cells; for TPM3-NTRK1-wt/EML4-ALK-wt: TRKA selectivity ratio: TPM3-NTRK1-wt IC50 / EML4-ALK-wt IC50, Ba/F3 cells
Outline: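 Ratio of TRKA to primary-target cellular IC50 (e.g. TPM3-NTRK1-wt/CD74-ROS1-wt), grouped into bins A >30, B >10, C ≥1, D <1. Each IC50 came from engineered Ba/F3 fusion lines grown without IL-3, dosed for 72 h and read as CellTiter-Glo luminescence, with a four-parameter logistic fit.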

CCn1ncc2c1-c1cnc(N)c(c1)O[C@H](C)c1cc(F)ccc1-n1ncc(C#N)c1C2 [Example 47, (19R)-22-amino-3-ethyl-16-fluoro-19-methyl-20-oxa-3,4,11,12,23-pentaazapentacyclo[19.3.1.0^2,^6.0^8,^12.0^13,^18]pentacosa-1(24),2(6),4,8,10,13,15,17,21(25),22-decaene-9-carbonitrile]
TPM3-NTRK1-wt/CD74-ROS1-G2032R: A (bin A for very high selectivity, ratio>30-fold)
TPM3-NTRK1-wt/CD74-ROS1-wt: A (bin A for very high selectivity, ratio>30-fold)
TPM3-NTRK1-wt/EML4-ALK-L1196M-G1202R: C (bin C for moderate selectivity, ratio≥1)
TPM3-NTRK1-wt/EML4-ALK-wt: B (bin B for high selectivity, ratio>10-fold)

Cn1nc(C#N)c2c1Cc1cccnc1-c1ccc(F)cc1COc1cc-2cnc1N [Example 101, 23-amino-17-fluoro-5-methyl-21-oxa-4,5,12,24-tetraazapentacyclo[20.3.1.0^2,^6.0^8,^13.0^14,^19]hexacosa-1(25),2(6),3,8(13),9,11,14,16,18,22(26),23-undecaene-3-carbonitrile]
TPM3-NTRK1-wt/CD74-ROS1-G2032R: A (bin A for very high selectivity, ratio>30-fold)
TPM3-NTRK1-wt/CD74-ROS1-wt: A (bin A for very high selectivity, ratio>30-fold)
TPM3-NTRK1-wt/EML4-ALK-L1196M-G1202R: A (bin A for very high selectivity, ratio>30-fold)
TPM3-NTRK1-wt/EML4-ALK-wt: A (bin A for very high selectivity, ratio>30-fold)

C[C@H]1Oc2cc(cnc2N)-c2c(CC3CC3)nn(C)c2Cc2cn(C)nc2-c2ccc(F)cc21 [Example 178, (19R)-3-(cyclopropylmethyl)-16-fluoro-5,10,19-trimethyl-20-oxa-4,5,10,11,23-pentaazapentacyclo[19.3.1.0^2,^6.0^8,^12.0^13,^18]pentacosa-1(24),2(6),3,8,11,13,15,17,21(25),22-decaen-22-amine]
TPM3-NTRK1-wt/CD74-ROS1-G2032R: A (bin A for very high selectivity, ratio>30-fold)
TPM3-NTRK1-wt/CD74-ROS1-wt: A (bin A for very high selectivity, ratio>30-fold)
TPM3-NTRK1-wt/EML4-ALK-L1196M-G1202R: A (bin A for very high selectivity, ratio>30-fold)
TPM3-NTRK1-wt/EML4-ALK-wt: A (bin A for very high selectivity, ratio>30-fold)

CC1Oc2cc(cnc2N)-c2c(cnn2CC(F)F)Cn2ccnc2-c2ccc(F)cc21 (centres unmarked) [Example 40, 3-(2,2-difluoroethyl)-16-fluoro-19-methyl-20-oxa-3,4,8,11,23-pentaazapentacyclo[19.3.1.0^2,^6.0^8,^12.0^13,^18]pentacosa-1(24),2(6),4,9,11,13,15,17,21(25),22-decaen-22-amine]
TPM3-NTRK1-wt/CD74-ROS1-G2032R: A (bin A for very high selectivity, ratio>30-fold)
TPM3-NTRK1-wt/CD74-ROS1-wt: A (bin A for very high selectivity, ratio>30-fold)
TPM3-NTRK1-wt/EML4-ALK-L1196M-G1202R: A (bin A for very high selectivity, ratio>30-fold)
TPM3-NTRK1-wt/EML4-ALK-wt: A (bin A for very high selectivity, ratio>30-fold)

C[C@H]1Oc2cc(cnc2N)-c2c(C#N)nn(C)c2Cc2cc(Cl)nn2-c2ccc(F)cc21 [Example 103, (19R)-22-amino-10-chloro-16-fluoro-5,19-dimethyl-20-oxa-4,5,11,12,23-pentaazapentacyclo[19.3.1.0^2,^6.0^8,^12.0^13,^18]pentacosa-1(24),2(6),3,8,10,13,15,17,21(25),22-decaene-3-carbonitrile]
TPM3-NTRK1-wt/CD74-ROS1-G2032R: A (bin A for very high selectivity, ratio>30-fold)
TPM3-NTRK1-wt/CD74-ROS1-wt: A (bin A for very high selectivity, ratio>30-fold)
TPM3-NTRK1-wt/EML4-ALK-L1196M-G1202R: B (bin B for high selectivity, ratio>10-fold)
TPM3-NTRK1-wt/EML4-ALK-wt: A (bin A for very high selectivity, ratio>30-fold)

Cc1nc2c(s1)Cn1cnc(C#N)c1-c1cnc(N)c(c1)O[C@H](C)c1cc(F)ccc1-2 [Example 65, (19R)-22-amino-16-fluoro-10,19-dimethyl-20-oxa-9-thia-4,6,11,23-tetraazapentacyclo[19.3.1.0^2,^6.0^8,^12.0^13,^18]pentacosa-1(24),2,4,8(12),10,13(18),14,16,21(25),22-decaene-3-carbonitrile]
TPM3-NTRK1-wt/CD74-ROS1-G2032R: A (bin A for very high selectivity, ratio>30-fold)
TPM3-NTRK1-wt/CD74-ROS1-wt: A (bin A for very high selectivity, ratio>30-fold)
TPM3-NTRK1-wt/EML4-ALK-L1196M-G1202R: B (bin B for high selectivity, ratio>10-fold)
TPM3-NTRK1-wt/EML4-ALK-wt: A (bin A for very high selectivity, ratio>30-fold)

C[C@H]1Oc2cc(cnc2N)-c2c(C#N)cnn2Cc2cn(C)nc2-c2ccc(F)cc21 [Example 9, (19R)-22-amino-16-fluoro-10,19-dimethyl-20-oxa-5,6,10,11,23-pentaazapentacyclo[19.3.1.0^2,^6.0^8,^12.0^13,^18]pentacosa-1(24),2,4,8,11,13,15,17,21(25),22-decaene-3-carbonitrile]
TPM3-NTRK1-wt/CD74-ROS1-G2032R: B (bin B for high selectivity, ratio>10-fold)
TPM3-NTRK1-wt/CD74-ROS1-wt: A (bin A for very high selectivity, ratio>30-fold)
TPM3-NTRK1-wt/EML4-ALK-L1196M-G1202R: C (bin C for moderate selectivity, ratio≥1)
TPM3-NTRK1-wt/EML4-ALK-wt: A (bin A for very high selectivity, ratio>30-fold)

CCn1ncc2c1-c1cnc(N)c(c1)O[C@H](C)c1cc(F)ccc1-c1ncoc1C2 [Example 77, (19R)-3-ethyl-16-fluoro-19-methyl-9,20-dioxa-3,4,11,23-tetraazapentacyclo[19.3.1.0^2,^6.0^8,^12.0^13,^18]pentacosa-1(24),2(6),4,8(12),10,13,15,17,21(25),22-decaen-22-amine]
TPM3-NTRK1-wt/CD74-ROS1-G2032R: A (bin A for very high selectivity, ratio>30-fold)
TPM3-NTRK1-wt/CD74-ROS1-wt: A (bin A for very high selectivity, ratio>30-fold)
TPM3-NTRK1-wt/EML4-ALK-L1196M-G1202R: C (bin C for moderate selectivity, ratio≥1)
TPM3-NTRK1-wt/EML4-ALK-wt: A (bin A for very high selectivity, ratio>30-fold)

Cc1nc(C#N)c2n1Cc1cccnc1-c1ccc(F)cc1[C@@H](C)Oc1cc-2cnc1N [Example 18, (20R)-23-amino-17-fluoro-5,20-dimethyl-21-oxa-4,6,12,24-tetraazapentacyclo[20.3.1.0^2,^6.0^8,^13.0^14,^19]hexacosa-1(25),2,4,8(13),9,11,14,16,18,22(26),23-undecaene-3-carbonitrile]
TPM3-NTRK1-wt/CD74-ROS1-G2032R: A (bin A for very high selectivity, ratio>30-fold)
TPM3-NTRK1-wt/CD74-ROS1-wt: A (bin A for very high selectivity, ratio>30-fold)
TPM3-NTRK1-wt/EML4-ALK-L1196M-G1202R: A (bin A for very high selectivity, ratio>30-fold)
TPM3-NTRK1-wt/EML4-ALK-wt: A (bin A for very high selectivity, ratio>30-fold)

C[C@H]1Oc2cc(cnc2N)-c2c(nn(C)c2C#N)Cc2cccnc2-c2ccc(F)cc21 [Example 112, (20R)-23-amino-17-fluoro-4,20-dimethyl-21-oxa-4,5,12,24-tetraazapentacyclo[20.3.1.0^2,^6.0^8,^13.0^14,^19]hexacosa-1(25),2,5,8(13),9,11,14,16,18,22(26),23-undecaene-3-carbonitrile]
TPM3-NTRK1-wt/CD74-ROS1-G2032R: C (bin C for moderate selectivity, ratio≥1)
TPM3-NTRK1-wt/CD74-ROS1-wt: A (bin A for very high selectivity, ratio>30-fold)
TPM3-NTRK1-wt/EML4-ALK-L1196M-G1202R: D (bin D for low selectivity, ratio<1)
TPM3-NTRK1-wt/EML4-ALK-wt: A (bin A for very high selectivity, ratio>30-fold)

CCn1ncc2c1-c1cnc(N)c(c1)O[C@H](C)c1cc(F)ccc1-n1nc(C(F)F)cc1C2 [Example 102, (19R)-10-(difluoromethyl)-3-ethyl-16-fluoro-19-methyl-20-oxa-3,4,11,12,23-pentaazapentacyclo[19.3.1.0^2,^6.0^8,^12.0^13,^18]pentacosa-1(24),2(6),4,8,10,13,15,17,21(25),22-decaen-22-amine]
TPM3-NTRK1-wt/CD74-ROS1-G2032R: A (bin A for very high selectivity, ratio>30-fold)
TPM3-NTRK1-wt/CD74-ROS1-wt: A (bin A for very high selectivity, ratio>30-fold)
TPM3-NTRK1-wt/EML4-ALK-L1196M-G1202R: C (bin C for moderate selectivity, ratio≥1)
TPM3-NTRK1-wt/EML4-ALK-wt: B (bin B for high selectivity, ratio>10-fold)

CCc1nn(C)c2c1-c1cnc(N)c(c1)O[C@H](C)c1cc(F)ccc1-c1nc(C)sc1C2 [Example 173, (19R)-3-ethyl-16-fluoro-5,10,19-trimethyl-20-oxa-9-thia-4,5,11,23-tetraazapentacyclo[19.3.1.0^2,^6.0^8,^12.0^13,^18]pentacosa-1(24),2(6),3,8(12),10,13,15,17,21(25),22-decaen-22-amine]
TPM3-NTRK1-wt/CD74-ROS1-G2032R: A (bin A for very high selectivity, ratio>30-fold)
TPM3-NTRK1-wt/CD74-ROS1-wt: A (bin A for very high selectivity, ratio>30-fold)
TPM3-NTRK1-wt/EML4-ALK-L1196M-G1202R: B (bin B for high selectivity, ratio>10-fold)
TPM3-NTRK1-wt/EML4-ALK-wt: A (bin A for very high selectivity, ratio>30-fold)

C[C@H]1Oc2cc(cnc2N)-c2c(cnn2C2COC2)Cc2cn(C)nc2-c2ccc(F)cc21 [Example 139, (19R)-16-fluoro-10,19-dimethyl-3-(oxetan-3-yl)-20-oxa-3,4,10,11,23-pentaazapentacyclo[19.3.1.0^2,^6.0^8,^12.0^13,^18]pentacosa-1(24),2(6),4,8,11,13,15,17,21(25),22-decaen-22-amine]
TPM3-NTRK1-wt/CD74-ROS1-G2032R: A (bin A for very high selectivity, ratio>30-fold)
TPM3-NTRK1-wt/CD74-ROS1-wt: A (bin A for very high selectivity, ratio>30-fold)
TPM3-NTRK1-wt/EML4-ALK-L1196M-G1202R: C (bin C for moderate selectivity, ratio≥1)
TPM3-NTRK1-wt/EML4-ALK-wt: A (bin A for very high selectivity, ratio>30-fold)

CCn1ncc2c1-c1cnc(N)c(c1)OCc1cc(F)ccc1-n1nccc1C2 [Example 41, 3-ethyl-16-fluoro-20-oxa-3,4,11,12,23-pentaazapentacyclo[19.3.1.0^2,^6.0^8,^12.0^13,^18]pentacosa-1(24),2(6),4,8,10,13,15,17,21(25),22-decaen-22-amine]
TPM3-NTRK1-wt/CD74-ROS1-G2032R: A (bin A for very high selectivity, ratio>30-fold)
TPM3-NTRK1-wt/CD74-ROS1-wt: A (bin A for very high selectivity, ratio>30-fold)
TPM3-NTRK1-wt/EML4-ALK-L1196M-G1202R: B (bin B for high selectivity, ratio>10-fold)
TPM3-NTRK1-wt/EML4-ALK-wt: A (bin A for very high selectivity, ratio>30-fold)
